{"source": "patent US20230181905A1", "about": "“Systems, Devices, and Methods for Enhancing the Neuroprotective Effects of Non-Invasive Gamma Stimulation with Pharmacological Agents” (Massachusetts Institute of Technology, priority 2021, published 2023)", "tested_on": "amyloid", "assay": "Amyloid immunohistochemistry in APP.PS1 mice", "type": "in vivo, mouse", "conditions": "11-month-old APP.PS1 mice", "method": "11-month-old APP.PS1 mice were either a) untreated as control, b) treated with GENUS alone (40 Hz light flicker delivered for 1 hour/day for 30 days), or c) a combination of GENUS (40 Hz delivered for 1 hour/day for 30 days) and levetiracetam (10 mg/kg body weight, intraperitoneal injection daily for 30 days), an agent shown to offer benefits in AD model mice. After the treatment mice were transcardially perfused with ice cold phosphate buffered saline (PBS) followed by 4% paraformaldehyde in PBS. Forty micron brain slices were prepared, and immunohistochemistry was then performed to evaluate the amyloid levels."}
{"smiles": "CC[C@@H](C(N)=O)N1CCCC1=O", "note": "[levetiracetam]", "values": [{"measurement": "amyloid levels in the visual cortex relative to treatment with GENUS alone", "setting": "levetiracetam 10 mg/kg i.p. daily 30 days co-administered with GENUS", "result": "higher"}, {"measurement": "effect of GENUS on amyloid levels", "setting": "levetiracetam 10 mg/kg i.p. daily 30 days co-administered with GENUS 1 hour/day", "result": "dampened or attenuated"}]}
